pIC50: −log10 of the molar value.
What was measured:
EP4 = EP4 (Homo sapiens (Human), UniProt P35408); experiment: hEP4 cAMP assay (BT549 breast cancer cells, HTRF cAMP); format: cell-based; conditions: antagonistic activity, PGE2 6 nM
Method in brief: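 cAMP accumulation quantified by HTRF competition between cellular cAMP and d2-labeled cAMP for cryptate anti-cAMP antibody. Cells: endogenously EP4-expressing BT549, buffer with 2 mM IBMX; 45 min RT compound preincubation preceded 30 min RT challenge with PGE2 at 6 nM final.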

PTGER2 (EP2) = PTGER2 (EP2) (Homo sapiens (Human), UniProt P43116); experiment: hEP2 b-arrestin assay (PathHunter HEK 293 PTGER2 b-arrestin cells); format: cell-based; conditions: antagonistic activity, beta-arrestin assay; read-out: hEP2 b-arr IC50
Method: Plate is pre-incubated 15 minutes at 37° C. Then five microliters of PGE2 (final conc. 5 μM) are transferred into the assay plate. Plate is incubated 120 minutes at 37° C.
(each concentration is measured in duplicate)

EP2 = EP2 (Homo sapiens (Human), UniProt P43116); experiment: hEP2 cAMP assay (SF295 glioblastoma cells, HTRF cAMP); format: cell-based; conditions: antagonistic activity
Method in brief: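 PGE2-driven cAMP accumulation was measured by HTRF in SF295 cells, which express endogenous EP2 only. Cells in assay buffer with 2 mM IBMX were pre-incubated 45 min at RT, then incubated 30 min at RT. Detection used competition between cellular cAMP and d2-cAMP for a cryptate anti-cAMP antibody.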

PTGER4 (EP4) = PTGER4 (EP4) (Homo sapiens (Human), UniProt P35408); experiment: cell-based
Chain of PTGER4 (EP4) (P35408 whole entry): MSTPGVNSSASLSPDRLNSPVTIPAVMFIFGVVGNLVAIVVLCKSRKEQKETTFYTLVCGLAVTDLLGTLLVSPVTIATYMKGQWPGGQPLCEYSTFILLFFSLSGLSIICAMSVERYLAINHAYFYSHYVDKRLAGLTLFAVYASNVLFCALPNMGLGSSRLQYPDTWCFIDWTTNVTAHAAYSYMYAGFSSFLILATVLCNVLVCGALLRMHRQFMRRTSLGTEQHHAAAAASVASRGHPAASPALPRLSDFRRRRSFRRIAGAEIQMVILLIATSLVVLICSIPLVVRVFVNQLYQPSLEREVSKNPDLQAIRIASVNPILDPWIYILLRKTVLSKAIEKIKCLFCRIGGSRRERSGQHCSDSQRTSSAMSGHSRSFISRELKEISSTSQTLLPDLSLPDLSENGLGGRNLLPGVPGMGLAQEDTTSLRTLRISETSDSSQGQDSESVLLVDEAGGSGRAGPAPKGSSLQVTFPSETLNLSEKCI
From the text: The system is based on the Enzyme Fragment Complementation Technology. Two complementing fragments of the b-galactosidase enzyme are expressed within stably transfected cells. The larger portion of b-gal, termed EA for Enzyme Acceptor, is fused to the C-terminus of b-arrestin 2. The smaller fragment, termed ProLink™ tag, is fused to PTGER2 (EP2) or PTRGER4 (EP4) at the C-terminus. Upon activation, b-arrestin is recruited which forces the interaction of ProLink and EA, allowing complementation of the two fragments of b-gal and the formation of a functional enzyme which is capable of hydrolysing the substrate and generating a chemiluminescent signal.
Plate is incubated at 37° C., 5% CO2 for 24 hours.
Stock solutions of test compounds are made at a concentration of 10 mM in DMSO, and serially diluted in DMSO to concentrations required for inhibition dose response curves (tested concentration range 10 μM-2 nM or 1 μM-0.2 nM).
Five microliters of diluted compounds are transferred into the assay plate. Plate is pre-incubated 15 minutes at 37° C. Then five microliters of PGE2 (final conc. 20 nM) are transferred into the assay plate. Plate is incubated 120 minutes at 37° C.
Twelve I of reagent are transferred to the assay plate and incubate for 1 hour at RT in the dark. Luminescence counts are read on a BMG Fluostar Optima reader according to manufacturer's instructions.
For each compound concentration calculate of the percentage of activity compared to DMSO control value as average ±STDEV. (each concentration is measured in duplicate)

Chain of EP4 (P35408 whole entry): as above
Chain of PTGER2 (EP2) (P43116 whole entry): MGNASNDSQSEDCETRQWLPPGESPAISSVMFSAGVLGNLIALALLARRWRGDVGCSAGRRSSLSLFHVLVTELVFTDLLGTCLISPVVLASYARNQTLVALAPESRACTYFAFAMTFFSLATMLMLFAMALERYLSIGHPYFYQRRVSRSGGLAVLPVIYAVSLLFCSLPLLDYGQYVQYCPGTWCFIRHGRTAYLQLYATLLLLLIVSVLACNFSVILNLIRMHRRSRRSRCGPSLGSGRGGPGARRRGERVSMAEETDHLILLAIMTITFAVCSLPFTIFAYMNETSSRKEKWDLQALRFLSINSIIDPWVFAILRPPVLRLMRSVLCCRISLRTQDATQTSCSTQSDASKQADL
Chain of EP2 (P43116 whole entry): as above

COc1cc2occc2cc1CCNc1cc(-c2ccc(C(=O)O)c(OC3CCC3)c2)ncn1 [Ex 100, 2-Cyclobutoxy-4-{6-[2-(6-methoxy-benzofuran-5-yl)-ethylamino]-pyrimidin-4-yl}-benzoic acid]
pIC50 (EP4): 7.17 | pIC50 (PTGER2 (EP2)): 7.46 | pIC50 (EP2): 7.54 | pIC50 (PTGER4 (EP4)): 6.75

CCOc1cc(-c2cc(NCCc3c(OC)cc4occc4c3C)ncn2)ccc1OCC(=O)O [Ex 102, (2-Ethoxy-4-{6-[2-(6-methoxy-4-methyl-benzofuran-5-yl)-ethylamino]-pyrimidin-4-yl}-phenoxy)-acetic acid]
pIC50 (EP4): 7.15 | pIC50 (PTGER2 (EP2)): 8.05 | pIC50 (EP2): 8.22 | pIC50 (PTGER4 (EP4)): 6.85

C#Cc1cc2ccccc2cc1CCNc1cc(-c2ccc(OCC(=O)O)c(OCC)c2)ncn1 [Ex 103, (2-Ethoxy-4-{6-[2-(3-ethynyl-naphthalen-2-yl)-ethylamino]-pyrimidin-4-yl}-phenoxy)-acetic acid]
pIC50 (EP4): 7.15 | pIC50 (PTGER2 (EP2)): 7.29 | pIC50 (EP2): 7.05 | pIC50 (PTGER4 (EP4)): 7.74

CCOc1cc(-c2cc(NCCc3cc4c(cc3F)OCCN4C)ncn2)sc1C(=O)O [Ex 104, 3-Ethoxy-5-{6-[2-(7-fluoro-4-methyl-3,4-dihydro-2H-benzo[1,4]oxazin-6-yl)-ethylamino]-pyrimidin-4-yl}-thiophene-2-carboxylic acid]
pIC50 (EP4): 7.15 | pIC50 (PTGER2 (EP2)): 7.92 | pIC50 (EP2): 7.89 | pIC50 (PTGER4 (EP4)): 7.04

C#Cc1cc2ccccc2cc1CCNc1cc(-c2ccc(C(=O)O)c(OCC)c2)ncn1 [Ex 105, 2-Ethoxy-4-{6-[2-(3-ethynyl-naphthalen-2-yl)-ethylamino]-pyrimidin-4-yl}-benzoic acid]
pIC50 (EP4): 7.14 | pIC50 (PTGER2 (EP2)): 7.40 | pIC50 (EP2): 7.12 | pIC50 (PTGER4 (EP4)): 7.28

CCSc1cc(-c2cc(NCCc3cc4c(cc3OC)OCCO4)ncn2)ccc1C(=O)O [Ex 110, 2-Ethylsulfanyl-4-{6-[2-(7-methoxy-2,3-dihydro-benzo[1,4]dioxin-6-yl)-ethylamino]-pyrimidin-4-yl}-benzoic acid]
pIC50 (EP4): 7.09 | pIC50 (PTGER2 (EP2)): 7.25 | pIC50 (EP2): 7.21 | pIC50 (PTGER4 (EP4)): 6.75

CCOc1cc(-c2cc(NCCc3ccc4c(c3)OCO4)ncn2)sc1C(=O)O [Ex 111, 5-[6-(2-Benzo[1,3]dioxol-5-yl-ethylamino)-pyrimidin-4-yl]-3-ethoxy-thiophene-2-carboxylic acid]
pIC50 (EP4): 7.09 | pIC50 (PTGER2 (EP2)): 6.94 | pIC50 (EP2): 7.31 | pIC50 (PTGER4 (EP4)): 7.05

CCOc1cc(-c2cc(NCCc3cc4ccoc4cc3OC)ncn2)ccc1OCC(=O)O [Ex 112, (2-Ethoxy-4-{6-[2-(6-methoxy-benzofuran-5-yl)-ethylamino]-pyrimidin-4-yl}-phenoxy)-acetic acid]
pIC50 (EP4): 7.09 | pIC50 (PTGER2 (EP2)): 7.40 | pIC50 (EP2): 7.16 | pIC50 (PTGER4 (EP4)): 6.90

COc1cc2c(cc1CCNc1cc(-c3ccc(C(=O)O)c(SC)c3)ncn1)OCCO2 [Ex 116, 4-{6-[2-(7-Methoxy-2,3-dihydro-benzo[1,4]dioxin-6-yl)-ethylamino]-pyrimidin-4-yl}-2-methylsulfanyl-benzoic acid]
pIC50 (EP4): 7.07 | pIC50 (PTGER2 (EP2)): 7.12 | pIC50 (EP2): 7.64 | pIC50 (PTGER4 (EP4)): 6.87

CCOc1cc(-c2cc(NCCc3cc4c(cc3OC(F)F)OCO4)ncn2)sc1C(=O)O [Ex 119, 5-{6-[2-(6-Difluoromethoxy-benzo[1,3]dioxol-5-yl)-ethylamino]-pyrimidin-4-yl}-3-ethoxy-thiophene-2-carboxylic acid]
pIC50 (EP4): 7.05 | pIC50 (PTGER2 (EP2)): 7.49 | pIC50 (EP2): 7.39 | pIC50 (PTGER4 (EP4)): 6.95

COc1cc2ccoc2cc1CCNc1cc(-c2ccc(C(=O)O)c(OC3CCC3)c2)ncn1 [Ex 124, 2-Cyclobutoxy-4-{6-[2-(5-methoxy-benzofuran-6-yl)-ethylamino]-pyrimidin-4-yl}-benzoic acid]
pIC50 (EP4): 7.00 | pIC50 (PTGER2 (EP2)): 6.95 | pIC50 (EP2): 7.02 | pIC50 (PTGER4 (EP4)): 6.67

O=C(O)c1ccc(-c2cc(NCCc3ccc4sccc4c3)ncn2)cc1OC1CCC1 [Ex 125, 4-[6-(2-Benzo[b]thiophen-5-yl-ethylamino)-pyrimidin-4-yl]-2-cyclobutoxy-benzoic acid]
pIC50 (EP4): 7.00 | pIC50 (PTGER2 (EP2)): 6.94 | pIC50 (EP2): 6.89 | pIC50 (PTGER4 (EP4)): 6.65

Cc1c(CCNc2cc(-c3cc4c(C(=O)O)cccc4[nH]3)ncn2)ccc2ccccc12 [Ex 127, 2-{6-[2-(1-Methyl-naphthalen-2-yl)-ethylamino]-pyrimidin-4-yl}-1H-indole-4-carboxylic acid]
pIC50 (EP4): 6.99 | pIC50 (PTGER2 (EP2)): 6.74 | pIC50 (EP2): 7.00 | pIC50 (PTGER4 (EP4)): 6.96

CSc1cc(-c2cc(NCCc3ccc4sccc4c3)ncn2)ccc1C(=O)O [Ex 132, 4-[6-(2-Benzo[b]thiophen-5-yl-ethylamino)-pyrimidin-4-yl]-2-methylsulfanyl-benzoic acid]
pIC50 (EP4): 6.97 | pIC50 (PTGER2 (EP2)): 7.09 | pIC50 (EP2): 7.18 | pIC50 (PTGER4 (EP4)): 6.79

CCOc1cc2c(cc1CCNc1cc(-c3ccc(C(=O)O)c(SC)c3)ncn1)OCCO2 [Ex 137, 4-{6-[2-(7-Ethoxy-2,3-dihydro-benzo[1,4]dioxin-6-yl)-ethylamino]-pyrimidin-4-yl}-2-methylsulfanyl-benzoic acid]
pIC50 (EP4): 6.92 | pIC50 (PTGER2 (EP2)): 7.85 | pIC50 (EP2): 8.40 | pIC50 (PTGER4 (EP4)): 6.91

CCOc1cc(-c2cc(NCCc3cc4ccoc4cc3F)ncn2)ccc1OCC(=O)O [Ex 142, (2-Ethoxy-4-{6-[2-(6-fluoro-benzofuran-5-yl)-ethylamino]-pyrimidin-4-yl}-phenoxy)-acetic acid]
pIC50 (EP4): 6.90 | pIC50 (PTGER2 (EP2)): 6.92 | pIC50 (EP2): 6.75 | pIC50 (PTGER4 (EP4)): 6.74

CCCCOc1cc(-c2cc(NCCc3ccc4ccccc4c3C)ncn2)cc(F)c1C(=O)O [Ex 150]
pIC50 (EP4): 6.84 | pIC50 (PTGER2 (EP2)): 6.64 | pIC50 (EP2): 6.66 | pIC50 (PTGER4 (EP4)): 6.65

CCOc1cc(-c2cc(NCCc3cc4ccoc4cc3OC)ncn2)ccc1C(=O)O [Ex 151, 2-Ethoxy-4-{6-[2-(6-methoxy-benzofuran-5-yl)-ethylamino]-pyrimidin-4-yl}-benzoic acid]
pIC50 (EP4): 6.84 | pIC50 (PTGER2 (EP2)): 7.49 | pIC50 (EP2): 7.46 | pIC50 (PTGER4 (EP4)): 6.21

COc1cc2ccsc2cc1CCNc1cc(-c2ccc(C(=O)O)c(SC)c2)ncn1 [Ex 152, 4-{6-[2-(5-Methoxy-benzo[b]thiophen-6-yl)-ethylamino]-pyrimidin-4-yl}-2-methylsulfanyl-benzoic acid]
pIC50 (EP4): 6.84 | pIC50 (PTGER2 (EP2)): 6.92 | pIC50 (EP2): 6.95 | pIC50 (PTGER4 (EP4)): 6.45

CCOc1cc(-c2cc(NCCc3ccc4sccc4c3)ncn2)ccc1C(=O)O [Ex 155, 4-[6-(2-Benzo[b]thiophen-5-yl-ethylamino)-pyrimidin-4-yl]-2-ethoxy-benzoic acid]
pIC50 (EP4): 6.82 | pIC50 (PTGER2 (EP2)): 6.63 | pIC50 (EP2): 6.79 | pIC50 (PTGER4 (EP4)): 6.52

CCOc1cc(-c2cc(NCCc3ccc4ccccc4c3C)ncn2)ccc1-c1nnn[nH]1 [Ex 156]
pIC50 (EP4): 6.81 | pIC50 (PTGER2 (EP2)): 6.97 | pIC50 (EP2): 6.66 | pIC50 (PTGER4 (EP4)): 7.44

CCOc1cc(-c2cc(NCCc3c(OC)cc4occc4c3C)ncn2)ccc1CC(=O)O [Ex 157, (2-Ethoxy-4-{6-[2-(6-methoxy-4-methyl-benzofuran-5-yl)-ethylamino]-pyrimidin-4-yl}-phenyl)-acetic acid]
pIC50 (EP4): 6.81 | pIC50 (PTGER2 (EP2)): 8.15 | pIC50 (EP2): 7.66 | pIC50 (PTGER4 (EP4)): 7.05
